{"source": "patent US20240262815A1", "about": "“HETEROARYL DERIVATIVE, METHOD FOR PREPARING SAME, AND PHARMACEUTICAL COMPOSITION COMPRISING SAME AS ACTIVE INGREDIENT” (VORONOI INC., priority 2021, published 2024)", "key": {"[1]": {"test_system": "BT-474 cancer cells", "assay": "Inhibitory activity against proliferation of BT-474 cancer cells (CellTiter-Glo)", "type": "cell-based", "conditions": "Homo sapiens, BT-474 ErbB2-overexpressing cancer cells, 120 hours after treatment", "summary_of_the_method": "(§1)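 GI50 derived from % growth relative to control, measured by CellTiter-Glo luminescence after 120 h compound exposure (12 concentrations, 0.2 nM-5 μM final, n=3). BT-474 grown in RPMI-1640/20% FBS, SK-BR-3 in McCOY'S 5A/10% FBS; seeding 48 h pre-treatment.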"}, "[2]": {"test_system": "SK-BR-3 cancer cells", "assay": "Inhibitory activity against proliferation of SK-BR-3 cancer cells (CellTiter-Glo)", "type": "cell-based", "conditions": "Homo sapiens, SK-BR-3, 120 h, ErbB2-overexpressing SK-BR-3 cells, 120 hours after treatment", "summary_of_the_method": "as §1"}}}
{"smiles": "C=CC(=O)Nc1cc(Nc2cc(N3OCC[C@@H]3c3cccc(-c4cccc(F)c4F)c3)ncn2)c(OC)cc1N1CCN(C)CC1", "note": "[Example 284, (R)-N-(5-((6-(3-(2′,3′-difluoro-[1,1′-biphenyl]-3-yl)isoxazolidin-2-yl)pyrimidin-4-yl)-amino)-4-methoxy-2-(4-methylpiper-azin-1-yl)phenyl)-acrylamide]", "values": [{"measurement": "GI50", "setting": "[1]", "result": "< 50", "unit": "nM"}, {"measurement": "GI50", "setting": "[2]", "result": "< 50", "unit": "nM"}]}
{"smiles": "COc1cc(N2CCN(C)CC2)c(NC(=O)/C=C/CN(C)C)cc1Nc1cc(N2OCC[C@@H]2c2cccc(-c3cccc(F)c3)c2)ncn1", "note": "[Example 285, (R,E)-4-(dimethyl-amino)-N-(5-((6-(3-(3′-fluoro-[1,1′-biphenyl]-3-yl)-isoxazolidin-2-yl)-pyrimidin-4-yl)-amino)-4-methoxy-2-(4-methylpiper-azin-1-yl)phenyl)-but-2-enamide]", "values": [{"measurement": "GI50", "setting": "[1]", "result": "< 50", "unit": "nM"}, {"measurement": "GI50", "setting": "[2]", "result": "< 50", "unit": "nM"}]}
{"smiles": "C=CC(=O)Nc1cc(Nc2cc(N3OCC[C@@H]3c3cccc(-c4cccc(F)c4)c3)ncn2)c(OC)cc1N1CCO[C@@H](C)C1", "note": "[Example 286, N-(5-((6-((R)-3-(3′-fluoro-[1,1′-biphenyl]-3-yl)-isoxazolidin-2-yl)-pyrimidin-4-yl)-amino)-4-methoxy-2-((S)-2-methyl-morpholino)phen-yl)acrylamide]", "values": [{"measurement": "GI50", "setting": "[1]", "result": "< 50", "unit": "nM"}, {"measurement": "GI50", "setting": "[2]", "result": "< 50", "unit": "nM"}]}
{"smiles": "C=CC(=O)Nc1cc(Nc2cc(N3OCC[C@@H]3c3cccc(-c4cccc(F)c4)c3)ncn2)c(OC)cc1N1C[C@H]2C[C@@H]1CO2", "note": "[Example 287, N-(2-((1R,4R)-2-oxa-5-azabicyclo-[2.2.1]heptan-5-yl)-5-((6-((R)-3-(3′-fluoro-[1,1′-biphenyl]-3-yl)-isoxazolidin-2-yl)-pyrimidin-4-yl)-amino)-4-meth-oxyphenyl)acryl-amide]", "values": [{"measurement": "GI50", "setting": "[1]", "result": "< 50", "unit": "nM"}, {"measurement": "GI50", "setting": "[2]", "result": "< 50", "unit": "nM"}]}
{"smiles": "C=CC(=O)Nc1cc(Nc2cc(N3OCC[C@@H]3c3cccc(-c4cccc(F)c4)c3)ncn2)c(OC)cc1N1CCN(C)C(=O)C1", "note": "[Example 288, (R)-N-(5-((6-(3-(3′-fluoro-[1,1′-biphenyl]-3-yl)-isoxazolidin-2-yl)-pyrimidin-4-yl)-amino)-4-meth-oxy-2-(4-methyl-3-oxopiperazin-1-yl)phenyl)acryl-amide]", "values": [{"measurement": "GI50", "setting": "[1]", "result": "< 50", "unit": "nM"}, {"measurement": "GI50", "setting": "[2]", "result": "< 50", "unit": "nM"}]}
{"smiles": "C=CC(=O)Nc1cc(Nc2cc(N3OCC[C@@H]3c3cccc(-c4cccc(F)c4)c3)ncn2)c(OC)cc1N1CCN(C(C)=O)CC1", "note": "[Example 289, (R)-N-(2-(4-acetyl-piperazin-1-yl)-5-((6-(3-(3′-fluoro-[1,1′-biphenyl]-3-yl)isoxazolidin-2-yl)pyrimidin-4-yl)-amino)-4-methoxy-phenyl)acrylamide]", "values": [{"measurement": "GI50", "setting": "[1]", "result": "< 50", "unit": "nM"}, {"measurement": "GI50", "setting": "[2]", "result": "< 50", "unit": "nM"}]}
{"smiles": "C=CC(=O)Nc1cc(Nc2cc(N3OCC[C@@H]3c3cccc(-c4cccc(F)c4)c3)ncn2)c(OC)cc1N1CCS(=O)(=O)CC1", "note": "[Example 290, (R)-N-(2-(1,1-dioxidothiomorph-olino)-5-((6-(3-(3′-fluoro-[1,1′-biphen-yl]-3-yl)isoxazol-idin-2-yl)pyrim-idin-4-yl)amino)-4-methoxyphen-yl)acrylamide]", "values": [{"measurement": "GI50", "setting": "[1]", "result": "< 50", "unit": "nM"}, {"measurement": "GI50", "setting": "[2]", "result": "< 50", "unit": "nM"}]}
{"smiles": "C=CC(=O)Nc1cc(Nc2cc(N3OCC[C@@H]3c3cccc(-c4cccc(F)c4)c3)ncn2)c(OC)cc1N1C[C@@H](C)O[C@@H](C)C1", "note": "[Example 292, N-(2-((2S,6R)-2,6-dimethylmorpho-lino)-5-((6-((R)-3-(3′-fluoro-[1,1′-biphenyl]-3-yl)-isoxazolidin-2-yl)-pyrimidin-4-yl)-amino)-4-methoxy-phenyl)acrylamide]", "values": [{"measurement": "GI50", "setting": "[1]", "result": "< 50", "unit": "nM"}, {"measurement": "GI50", "setting": "[2]", "result": "< 50", "unit": "nM"}]}
{"smiles": "C=CC(=O)Nc1cc(Nc2cc(N3OCC[C@@H]3c3cccc(-c4cccc(F)c4)c3)ncn2)c(OC)cc1N1CCN(C2COC2)CC1", "note": "[Example 293, (R)-N-(5-((6-(3-(3′-fluoro-[1,1′-biphenyl]-3-yl)-isoxazolidin-2-yl)-pyrimidin-4-yl)-amino)-4-methoxy-2-(4-(oxetan-3-yl)-piperazin-1-yl)-phenyl)acrylamide]", "values": [{"measurement": "GI50", "setting": "[1]", "result": "50 to 500", "unit": "nM"}, {"measurement": "GI50", "setting": "[2]", "result": "< 50", "unit": "nM"}]}
{"smiles": "C=CC(=O)Nc1cc(Nc2cc(N3OCC[C@@H]3c3cccc(-c4cccc(F)c4)c3)ncn2)c(OC)cc1N1CCN(S(C)(=O)=O)CC1", "note": "[Example 294, (R)-N-(5-((6-(3-(3′-fluoro-[1,1′-biphenyl]-3-yl)-isoxazolidin-2-yl)-pyrimidin-4-yl)-amino)-4-methoxy-2-(4-(methylsulfon-yl)piperazin-1-yl)-phenyl)acrylamide]", "values": [{"measurement": "GI50", "setting": "[1]", "result": "< 50", "unit": "nM"}, {"measurement": "GI50", "setting": "[2]", "result": "< 50", "unit": "nM"}]}
{"smiles": "C=CC(=O)Nc1cc(Nc2cc(N3OCC[C@@H]3c3cccc(-c4cccc(F)c4)c3)ncn2)c(OC)cc1N1CC2(CN(C(=O)OC(C)(C)C)C2)C1", "note": "[Example 295, tert-butyl (R)-6-(2-acrylamido-4-((6-(3-(3′-fluoro-[1,1′-biphenyl]-3-yl)-isoxazolidin-2-yl)-pyrimidin-4-yl)-amino)-5-methoxy-phenyl)-2,6-diazaspiro[3.3]-heptane-2-carbox-ylate]", "values": [{"measurement": "GI50", "setting": "[1]", "result": "< 50", "unit": "nM"}, {"measurement": "GI50", "setting": "[2]", "result": "50 to 500", "unit": "nM"}]}
{"smiles": "C=CC(=O)Nc1cc(Nc2cc(N3OCC[C@@H]3c3cccc(C#Cc4ccccc4)c3)ncn2)c(OC)cc1N(C)CCN(C)C", "note": "[Example 297, (R)-N-(2-((2-(dimethylamino)-ethyl)(methyl)-amino)-4-methoxy-5-((6-(3-(3-(phen-ylethynyl)phenyl)-isoxazolidin-2-yl)-pyrimidin-4-yl)-amino)phenyl)-acrylamide]", "values": [{"measurement": "GI50", "setting": "[1]", "result": "< 50", "unit": "nM"}, {"measurement": "GI50", "setting": "[2]", "result": "< 50", "unit": "nM"}]}
{"smiles": "C=CC(=O)Nc1cc(Nc2cc(N3OCC[C@@H]3c3cccc(-c4ccc(OC)nc4)c3)ncn2)c(OC)cc1N1CCN(C)CC1", "note": "[Example 298, (R)-N-(4-methoxy-5-((6-(3-(3-(6-methoxypyridin-3-yl)phenyl)-isox-azolidin-2-yl)-pyrimidin-4-yl)-amino)-2-(4-meth-ylpiperazin-1-yl)-phenyl)acrylamide]", "values": [{"measurement": "GI50", "setting": "[1]", "result": "< 50", "unit": "nM"}, {"measurement": "GI50", "setting": "[2]", "result": "< 50", "unit": "nM"}]}
{"smiles": "C=CC(=O)Nc1cc(Nc2cc(N3OCC[C@@H]3c3cccc(-c4ccc(OC)nc4)c3)ncn2)c(OC)cc1N(C)CCN(C)C", "note": "[Example 300, (R)-N-(2-((2-(dimethylamino)-ethyl)(methyl)-amino)-4-methoxy-5-((6-(3-(3-(6-methoxypyridin-3-yl)phenyl)isox-azolidin-2-yl)pyr-imidin-4-yl)amino)-phenyl)acrylamide]", "values": [{"measurement": "GI50", "setting": "[1]", "result": "< 50", "unit": "nM"}, {"measurement": "GI50", "setting": "[2]", "result": "< 50", "unit": "nM"}]}
{"smiles": "C=CC(=O)Nc1cc(Nc2cc(N3OCC[C@@H]3c3cccc(-c4ccc(O)nc4)c3)ncn2)c(OC)cc1N(C)CCN(C)C", "note": "[Example 301, (R)-N-(2-((2-(dimethylamino)-ethyl)(methyl)-amino)-5-((6-(3-(3-(6-hydroxy-pyridin-3-yl)phen-yl)-isoxazolidin-2-yl)pyrimidin-4-yl)amino)-4-meth-oxyphenyl)acryl-amide]", "values": [{"measurement": "GI50", "setting": "[1]", "result": "< 50", "unit": "nM"}, {"measurement": "GI50", "setting": "[2]", "result": "50 to 500", "unit": "nM"}]}
{"smiles": "C=CC(=O)Nc1cc(Nc2cc(N3OCC[C@@H]3c3cccc(-c4cnc(C)c(F)c4)c3)ncn2)c(OC)cc1N1CCN(C)CC1", "note": "[Example 302, (R)-N-(5-((6-(3-(3-(5-fluoro-6-meth-ylpyridin-3-yl)-phenyl)isoxazol-idin-2-yl)pyrim-idin-4-yl)amino)-4-methoxy-2-(4-methylpiperazin-1-yl)phenyl)acryl-amide]", "values": [{"measurement": "GI50", "setting": "[1]", "result": "< 50", "unit": "nM"}, {"measurement": "GI50", "setting": "[2]", "result": "50 to 500", "unit": "nM"}]}
{"smiles": "C=CC(=O)Nc1cc(Nc2cc(N3OCC[C@@H]3c3cccc(-c4cnc(C)c(F)c4)c3)ncn2)c(OC)cc1N(C)CCN(C)C", "note": "[Example 303, (R)-N-(2-((2-(dimethylamino)-ethyl)(methyl)-amino)-5-((6-(3-(3-(5-fluoro-6-methylpyridin-3-yl)phenyl)isoxazol-idin-2-yl)pyrim-idin-4-yl)amino)-4-methoxyphenyl)-acrylamide]", "values": [{"measurement": "GI50", "setting": "[1]", "result": "< 50", "unit": "nM"}, {"measurement": "GI50", "setting": "[2]", "result": "< 50", "unit": "nM"}]}
